Results: patent US5990170A, “Therapeutic use of mono and bicarboxylic acid amides active at the peripheral cannabinoid receptor” (Lifegroup S.p.A., priority 1994, dated 1999)
“Also recorded” adds a separate entry of the source. Where two headings read alike, the source gives them in different places.

Legend:
[1] = molecular target: T1, CB2 receptor (RBL-2H3 cell membranes) (Rattus norvegicus, UniProt Q9QZN9); assay: Saturation curve of labelled receptor agonist 3H-WIN 55,212-2 on RBL-2H3 cell membranes; format: binding; details: 0.5 to 20 nM 3H-WIN 55,212-2; 30 μg membrane proteins; 30° C., 60 min
T1 construct: Preparation of Plasmatic Membranes of RBL-2H3 Cells; endogenous in cells; host or cells: RBL-2H3 (rat basophilic leukemia) cell membranes
T1 sequence (Q9QZN9 1-360): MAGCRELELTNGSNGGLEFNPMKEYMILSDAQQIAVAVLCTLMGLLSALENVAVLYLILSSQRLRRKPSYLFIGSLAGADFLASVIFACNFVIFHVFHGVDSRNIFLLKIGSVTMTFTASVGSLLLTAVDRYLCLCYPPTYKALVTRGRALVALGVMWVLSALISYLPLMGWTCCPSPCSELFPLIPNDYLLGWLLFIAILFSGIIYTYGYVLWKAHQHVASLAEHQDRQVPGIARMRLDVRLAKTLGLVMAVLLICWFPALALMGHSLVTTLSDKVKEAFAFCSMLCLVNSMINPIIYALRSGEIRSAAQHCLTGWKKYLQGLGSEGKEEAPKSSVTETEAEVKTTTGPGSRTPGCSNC
Method: (§1) RBL-2H3 cells (100×10^6), frozen at -80° C., were thawed with 4 ml of Tris-HCl buffer solution 50 mM (pH 7.4), added with 0.25% w/v of Tripsin inhibitor, TYPE II-S: SOY BEAN® (distributed by Sigma). The cells were resuspended in the buffer and homogenized. The homogenate was centrifuged at 1500×g at 4° C. for 10 min. The supernatant obtained was collected and the precipitate was resuspended in 4 ml of the previous buffer. The resuspended precipitate was homogenized and centrifuged again at 1500×g at 4° C. for 5-10 min. The resulting supernatant was combined to the supernatant previously obtained and centrifuged at 5000×g for 10 min. After centrifugation, the supernatant was collected and further centrifuged at 40,000×g at 4° C. for 30 min. The resulting precipitate was resuspended in 0.5 ml of the buffer solution described above, with addition of 1% Bovine Serum Albumin fatty acid free. The obtained suspension was centrifuged at 40,000×g at 4° C. for 30 min. The resulting precipitate was collected and resuspended in buffer solution containing 50 mM Tris HCl, 1 mM Tris-EDTA, 3 mM MgCl2, pH 7.4, in order to obtain a proteic concentration of 1 μg/μl approx. This preparation may be used fresh, or frozen at -80° C. and utilized within few days.

physchem = details: chloroform, organic solvent or mixture
RBL-2H3 cells = assay: Inhibition of 3H-serotonin release induced by ADNP/DNP-HSA immunogenic stimulation in RBL-2H3 cells; format: cell-based, rat; details: for inhibition at 10 µM: RBL-2H3, 10 μM, 1% DMSO and 0.1% ethanol (Table 4), read-out: 3H-serotonin net release inhibition (%); for inhibition at 12.5 µM: RBL-2H3, read-out: 3H-serotonin net release inhibition (%), 12.5 μM
[2] = Solubility in water and organic solvents; details: result in words
[3] = molecular target: T1, CB2 receptor (RBL-2H3 cell membranes); assay: Competitive displacement of 3H-WIN 55,212-2 binding to RBL-2H3 cell membranes; details: for inhibition at 10 µM: read-out: % Displacement
Method: as §1
Non-radioactive WIN 55,212-2 (1 μM) was used to inhibit specific binding. […] The competitors were added to the binding mixture prior to the labelled ligand. In both cases, for an evaluation of the reference specific binding, ethanol and DMSO were added at the same final concentration to the total binding and to the aspecific one, also in the absence of competitors.
WIN 55,212-2 was used at a concentration of 3 μM, whereas the other compounds were used at a concentration of 10 μM.
Incubation was carried out in the presence of 1% DMSO. The values of Inhibitory Concentration 50 (IC50) are expressed as means ± SEM, after the number of experiments reported hereinbelow.

CB1 central receptor [4] = details: result in words; Devane et al., 1992; cited from earlier work
[5] = molecular target: T1, CB2 receptor (RBL-2H3 cell membranes); assay: Competitive displacement of 3H-WIN 55,212-2 binding to RBL-2H3 cell membranes; details: competitor 10 μM
CB1 central receptor [6] = details: result in words; cited from earlier work
activated macrophages = details: result in words; Fischer-Stenger et al., 1993; cited from earlier work

## Cc1c(C(=O)c2cccc3ccccc23)c2cccc3c2n1C(CN1CCOCC1)CO3 (stereo not drawn) [3H-WIN 55,212-2]
[1]
  Bmax: 100 to 250 pM

## CCCCCCCCCCCCCCCCCC(=O)NCCO [Example 23, N-(2-hydroxyethyl)-stearoylamide]
physchem
  solubility: > 5000 µg/mL
RBL-2H3 cells; Rattus norvegicus, RBL-2H3, read-out: 3H-serotonin release inhibition %, 0.2% DMSO, 60 μM (Table 8)
  inhibition at 60 µM: 60%
RBL-2H3 cells; Rattus norvegicus, RBL-2H3, read-out: 3H-serotonin release inhibition %, 1% DMSO, 100 μM (Table 8)
  inhibition at 100 µM: 91%
RBL-2H3 cells; Rattus norvegicus, RBL-2H3, read-out: EC50, concentration inhibiting by 50% the net release of 3H serotonin, 1% DMSO, 15 minutes release period (Table 9)
  EC50: 11 µM
RBL-2H3 cells; read-out: ED50, inhibition of 3H-serotonin release, + anandamide (12.5 μM) (Table 5), 15 min
  IC50: 10.1 µM
RBL-2H3 cells; read-out: ED50, inhibition of 3H-serotonin release, - anandamide (Table 5), 15 min
  IC50: 2.4 µM

## CCCCCCCCCCCCCCCC(=O)NCCO [Example 25, N-palmitoylethanolamide]
[2]
  solubility in organic solvents: in hot MetOH, CHCl3, DMSO
  solubility in water: insoluble
[3]
  IC50: 0.001 ± 0.00055 µM
  inhibition at 10 µM: 23%
RBL-2H3 cells; Rattus norvegicus, + anandamide (12.5 μM)
  inhibition at 10 µM: 0%
RBL-2H3 cells; Rattus norvegicus, - anandamide
  inhibition at 10 µM: 100%
RBL-2H3 cells; Rattus norvegicus, RBL-2H3, 0.25 h, 10 μM (minimum effective concentration), 1% DMSO and 0.1% ethanol (Table 3), read-out: 3H-serotonin net release (%)
  activity at 10 µM: 0%
RBL-2H3 cells; Rattus norvegicus, RBL-2H3, 0.25 h, 1% DMSO and 0.1% ethanol (Table 3), read-out: ED50 (the source's name)
  IC50: 2.6 µM
RBL-2H3 cells; result in words
  functional effect following receptor activation (serotonin release): can inhibit the effects induced by mast cell activation and exert an effect that is higher than or comparable to the one of cannabinoids
RBL-2H3 cells; result in words, listed as palmitoylethanolamide
  functional effect following receptor activation (serotonin release): capable of functionally activating the peripheral receptor
CB1 central receptor [4]
  binding to the central receptor: not able to bind to the central receptor
[5]; 0.1% DMSO
  Specific binding: 1103

## CCCCC/C=C\C/C=C\C/C=C\C/C=C\CCCC(=O)NCCO [anandamide, arachidonylethanolamide, reference compound]
[3]
  inhibition at 10 µM: 95%
[3]; result in words
  binding to the peripheral receptor: able to bind to the receptor and to compete; also recorded: having binding affinity for the peripheral receptor
RBL-2H3 cells; Rattus norvegicus, + WIN 55,212-2 (30 μm) (Table 6)
  inhibition at 12.5 µM: 15%
RBL-2H3 cells; Rattus norvegicus, - WIN (Table 6)
  inhibition at 12.5 µM: 7%
RBL-2H3 cells; concentration not given, 0.1% DMSO and 0.1% ethanol (Table 3), 15 min
  3H-serotonin net release (%): 100%
RBL-2H3 cells; result in words
  antagonism of the protective effects of cannabinoids: competitive antagonism on the peripheral receptor
  functional effect following receptor activation (serotonin release): unable to affect serotonin release; also recorded: is not able to induce biological effects
[5]; 0.1% ethanol
  Specific binding: 99
CB1 central receptor [6]
  functional activation of CB1 central receptor: can functionally activate CB1 central receptor

## CCCCCc1cc(O)c2c(c1)OC(C)(C)[C@@H]1CCC(C)=C[C@@H]21 [Δ9-THC, Δ9-tetrahydrocannabinol, reference compound]
RBL-2H3 cells; Rattus norvegicus, RBL-2H3, 0.25 h, read-out: 3H-serotonin net release (%)
  activity at 25 µM: 27%
RBL-2H3 cells; Rattus norvegicus, RBL-2H3, 0.25 h, read-out: ED50
  IC50: 5 µM
RBL-2H3 cells; Rattus norvegicus, RBL-2H3, read-out: 3H-serotonin net release inhibition (%), 25 μM, - anandamide (Table 4)
  inhibition at 25 µM: 73%
RBL-2H3 cells; result in words
  functional effect following receptor activation (serotonin release): able to inhibit, in a concentration-dependent way, RBL cells immunogenic activation
Activated macrophages
  effect on cytolytic activity of activated macrophages: decreases the cytolytic activity of activated macrophages
